By IC50 is commonly meant the concentration at which inhibition is half-maximal. High values mean weaker potency, low ones greater potency.

This assay concerns the target LSD1 (Homo sapiens (Human), UniProt O60341). In words: biochemical. On the procedure:
After stopping the reactions plates were incubated for 30 minutes and read on a PHERAstar FS plate reader (BMG Labtech).

Turning to `COc1ccc(CC2(CN[C@@H]3C[C@H]3c3ccccc3)CCN(CC3(C(=O)O)CC3)CC2)cn1` [Example 69, 1-{[4-[(6-methoxypyridin-3-yl)methyl]-4-({[(1R,2S)-2-phenylcyclopropyl]amino}methyl)piperidin-1-yl]methyl}cyclopropanecarboxylic acid], the IC50 is below 0.1 µM.

For the origin of these results see patent publication US10174030B2 (priority 2014, dated 2019).
